In assay [1] the target is S. cerevisiae alpha-glucosidase (Saccharomyces cerevisiae, UniProt P53341). The format is biochemical. On the procedure:
(§1) The test steps of this example are as follows. Firstly, the Syzygium zeylanicum L. extract was mixed a buffer (potassium phosphate buffer) with 1:9 volume to produce a Syzygium zeylanicum L. extract solution. The Syzygium zeylanicum L. extract solution and alpha-glucosidase (enzyme) were mixed into the buffer at a volume ratio of 1:1. In this example, 15 μl extract solution and the enzyme were separately mixed into 100 μl buffer at 37° C. for 20 minutes. Then, 50 μl matrix p-nitrophenyl glucopyranoside (pNPG) was added at 37° C. for 40 minutes; then 100 μl, 1 mol/L of Na2CO3 was added to stop the reaction. Finally, the absorbance of OD 410 nm was measured, and calculated the inhibition activity of alpha-glucosidase. The above experimental steps was the subsequent enzyme activity test method of the present invention, and only different conditions, such as extraction solvent, reaction temperature or pH were changed.
(§2) The enzyme activity inhibition test of Example 2 was used in this example. […] The enzymes were S. cerevisiae alpha-glucosidase, rat alpha-glucosidase, B. stearothermophilus alpha-glucoside), porcine pancreatic alpha-amylase, B. subtilis alpha-amylase, and human saliva alpha-amylase.

Assay [2] concerns the target T1, Porcine pancreatic alpha-amylase (Sus scrofa, UniProt P00690).
T1 sequence (P00690 16-511): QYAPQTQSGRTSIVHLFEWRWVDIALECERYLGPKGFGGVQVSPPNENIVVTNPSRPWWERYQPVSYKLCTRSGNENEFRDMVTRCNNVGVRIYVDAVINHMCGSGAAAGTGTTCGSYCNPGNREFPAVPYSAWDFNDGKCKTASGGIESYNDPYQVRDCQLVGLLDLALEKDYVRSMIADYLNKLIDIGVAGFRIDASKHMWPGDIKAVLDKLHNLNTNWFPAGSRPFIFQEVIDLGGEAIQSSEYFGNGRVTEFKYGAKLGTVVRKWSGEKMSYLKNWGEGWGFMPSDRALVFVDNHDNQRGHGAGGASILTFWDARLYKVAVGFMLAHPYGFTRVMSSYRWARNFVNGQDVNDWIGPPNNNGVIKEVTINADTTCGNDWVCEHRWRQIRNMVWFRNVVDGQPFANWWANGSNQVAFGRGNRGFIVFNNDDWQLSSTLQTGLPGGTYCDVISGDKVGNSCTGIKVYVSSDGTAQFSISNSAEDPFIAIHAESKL
In words: Enzyme activity inhibition test, porcine pancreatic alpha-amylase. It is filed as biochemical. As to the method:
as §1, §2

Sequence of S. cerevisiae alpha-glucosidase (P53341 whole entry): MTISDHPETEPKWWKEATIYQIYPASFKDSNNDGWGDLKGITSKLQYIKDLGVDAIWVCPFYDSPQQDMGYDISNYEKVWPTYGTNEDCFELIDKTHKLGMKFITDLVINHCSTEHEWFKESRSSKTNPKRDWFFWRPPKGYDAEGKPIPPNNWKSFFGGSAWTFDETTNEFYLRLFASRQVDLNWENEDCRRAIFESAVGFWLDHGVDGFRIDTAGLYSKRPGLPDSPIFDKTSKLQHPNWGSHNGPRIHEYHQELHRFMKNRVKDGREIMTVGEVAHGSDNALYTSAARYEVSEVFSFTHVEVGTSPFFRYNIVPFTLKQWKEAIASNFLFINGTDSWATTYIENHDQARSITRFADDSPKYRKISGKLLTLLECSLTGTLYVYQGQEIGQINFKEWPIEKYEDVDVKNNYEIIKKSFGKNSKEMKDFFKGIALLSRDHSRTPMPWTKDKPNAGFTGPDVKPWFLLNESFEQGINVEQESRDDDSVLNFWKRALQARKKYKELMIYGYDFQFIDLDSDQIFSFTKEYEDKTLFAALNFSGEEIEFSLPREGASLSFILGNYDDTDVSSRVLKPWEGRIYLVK

With `C[C@H]1O[C@H](O[C@H]2[C@H](O)[C@@H](O)[C@@H](O[C@H]3[C@H](O)[C@@H](O)C(O)O[C@@H]3CO)O[C@@H]2CO)[C@H](O)[C@@H](O)[C@@H]1N[C@H]1C=C(CO)[C@@H](O)[C@H](O)[C@H]1O` (some centres unmarked) [Acarbose], the figures for the “Maximum Inhibitory Activity” value in assay [1] and in assay [2] were 64 ± 2.3% and 91 ± 2.5%, respectively.
